Measured values reported in US11472844B2, “Peptidomimetics, method of synthesis and uses thereof” (priority 2017, dated 2022).
No end group written: not given here.

Tests used:
[1] = system: human neutrophil granules; test: Fluorescent labelling of fixed purified human neutrophils; assay type: cell-based; conditions: 1 μg/mL
Experimental: Fixation and staining procedures. For microscopy studies, purified or cultured cells and polymerized lactoferrin were resuspended onto 24-well plates containing 12 mm coverslips in RMPI 1640+10 mM Hepes (when cultured in the autologous plasma) and centrifuged at 300×g for 10 min. Culture media were removed and cells were fixed in 4% Paraformaldehyde (PFA) for two hours. Fixed cells were washed three times in PBS+0.1% saponin (Sigma-Aldrich), prior immunolabeling with primary antibodies in the same buffer for 1 hour (Triton 0.1% can alternatively be used for cell permeabilization). After three additional washes in PBS+0.1% saponin, secondary antibodies and fluorescent markers were incubated for one hour. Coverslips were washed three time in PBS+0.1% saponin, three times in PBS, and three times in deionized H2O and mounted with prolong gold^tm mounting media.
Antibodies, fluorescent markers. For immunofluorescence assay, lactoferrin was detected with a mouse anti-lactoferrin primary monoclonal antibody (Hycult biotech, clone 265-1K1, 1:50 dilution) and an anti-mouse-FITC conjugated secondary antibody (1:1000). Nuclei were detected with DAPI (Life Technologies), Lyophilized MUB40 peptides (MUB40#1 (SEQ ID NO: 3)-Cy5, MUB40#2 (SEQ ID NO: 4)-Cy5, MUB40#3 (SEQ ID NO: 5)-Cy5, MUB40#4 (SEQ ID NO: 6)-Cy5, MUB40#1 (SEQ ID NO: 3)-Dylight, RI-MUB40 (SEQ ID NO: 2)-Cy5, and RI-MUB40 (SEQ ID NO: 2)-Biotin) were solubilized in a phosphate buffer pH8 at a 1 mg/mL concentration and used at a 1:1000 dilution. For PBMC staining CD19-APC (B lymphocytes), CD3-APC (T lymphocytes), and CD14-PercP (monocytes, macrophages) (BD Bioscience) were used at a 1:1000 dilution together with Dapi (1:1000) and MUB40-Cy5 (1 mg/mL). Actin was stained with Phalloidin-Rhodamine red X (RRX) (Jackson Immunoresearch Antibodies) used at a 1:1000 final dilution.
Polymorphonuclear neutrophils purification. Human polymorphonuclear neutrophils were purified as described previously (Monceaux et al. 2016). Briefly, plasma was removed by centrifugation (450×g, 15 min); blood cells were resuspended in 0.9% NaCl solution supplemented with 0.72% Dextran. After red blood cells sedimentation, white blood cells were pelleted and further separated on a two layer Percoll (GE Healthcare) (51%−42%) by centrifugation (at 240×g, 20 min). PBMC (top layer) were isolated from polymorphonuclear neutrophils (bottom layer). Red blood cells were removed from the latter fraction using CD235a (glycophorin) microbeads (negative selection) (Miltenyi Biotec). PBMCs and polymorphonuclear neutrophils were resuspended in the autologous plasma. Guinea pig and mouse polymorphonuclear neutrophils were purified with the same procedure.
Confocal microscopy. […]

[2] = system: neutrophils recruited to guinea pig colonic mucosa infected with Shigella flexneri; test: Guinea pig model of shigellosis, staining of fixed colon sections; conditions: guinea pig colon, Shigella flexneri, 1 μg/ml
Experimental: Guinea pig. The experimental protocol was approved by the french Ethic Committee Paris (n° 20140069, 2014). Young guinea pigs (Hartley, <150 g, Charles River) were anaesthetized and infected intrarectally with 10^9 CFU exponentially grown Shigella flexneri 5a (M90T) pGFP as previously described (Shim et al. 2007) (Monceaux et al. 2016). Infection occurred during 8 hours before animals were sacrificed and infected colons collected and fixed in 4% Paraformaldehyde (PFA) for two hours. For immunohistochemical staining, infected guinea pig colon samples were washed in PBS and incubated at 4° C. in PBS containing 16% sucrose for 4 hours, followed by incubation in PBS with 30% sucrose overnight. Samples were frozen in OCT (VWR 361603E) on dry ice. Frozen blocks were stored at −80 until sectioning. 10 to 30 μm sections were obtained using a cryostat CM-3050S (Leica). Tissue slices were labeled in PBS+0.1% saponin (Sigma-Aldrich) with MUB40-Cy5 or MUB40-Dylight (1 μg/ml) to localize recruited neutrophils. Slides were washed three time in PBS+0.1% saponin, three times in PBS, and three times in deionized H2O and mounted with prolong gold^tm mounting media.

[3] = system: neutrophils recruited to rabbit ileum infected with Shigella flexneri; test: Rabbit ligated loop model of shigellosis, staining of fixed ileum sections; conditions: 1 μg/mL
Experimental: Rabbit. The experimental protocol was approved by the french Ethic Committee Paris 1 (number 20070004, December 9th 2007). New Zealand White rabbits weighting 2.5-3 kg (Charles River) were used for experimental infections. For each animal, up to 12 intestinal ligated loops, each 5 cm in length, were prepared as described previously (Jones et al. 2007; Martinez et al. 1988; West et al. 2005) and infected with 10^5 CFU S. flexneri pGFP per loop. After 16 h, animals were sacrificed and collected tissue were fixed in 4% Paraformaldehyde (PFA) for two hours. For immunohistochemical staining, infected rabbit ileum samples were washed in PBS, incubated at 4° C. PBS containing 12% sucrose for 90 min, then in PBS with 18% sucrose overnight, and frozen in OCT (Sakura) on dry ice. 7 μm sections were obtained using a cryostat CM-3050 (Leica). Fluorescent staining was performed in PBS+0.1% saponin using Phalloidin-RRX (1:1000 dilution) to stain Actin, MUB40-Cy5 (1 μg/mL) and a mouse anti-lactoferrin primary monoclonal antibody (Hycult biotech, clone 265-1K1, 1:50 dilution) and an anti-mouse-FITC conjugated secondary antibody (1:1000) to stain infiltrated neutrophils. Slides were washed three time in PBS+0.1% saponin, three times in PBS, and three times in deionized H2O and mounted with prolong gold^tm mounting media.

MUB40-Dylight405: MUB40#1 (SEQ ID NO: 3) labeled with Dylight 405 (CTAEGIKKFEGDGYELFKDNFPAGEKFDNDDTNDQFYTVIF; also: Dylight 405 label (site not given here))
specifically labeled: labelling of human neutrophil granules [1] | labelling of recruited neutrophils [2] | labelling of recruited neutrophils [3]
